# From article PMC7617459, “Comparative Evaluation and Profiling of Chemical Tools for the Nuclear Hormone Receptor Family 2” (ACS pharmacology & translational science, 2025)
# Assays:
# [1] = system: HNF4α, RXRα, PPARα, LXRα, GR, PR, ER, RAR, RORγ, AR, and COUP-TF1; design: method as in PMID 32494682; details: cited from earlier work
# [2] = system: prostate cancer tumor; design: method as in PMID 32494682; details: xenograft mouse model, 2.6 mg/kg; cited from earlier work
# [3] = system: COUP-TF2 target genes FOXM1 and CDK1; design: method as in PMID 32494682; details: prostate cancer cells; cited from earlier work
# [4] = system: COUP-TF2; design: method as in PMID 32494682; details: reporter gene assay; cited from earlier work
# [5] = system: NR2F1; design: method as in PMID 34812843; details: T-Hep3 cells on chicken embryo chorioallantoic membrane; cited from earlier work
# [6] = system: head and neck squamous-cell carcinoma (HNSCC); design: method as in PMID 34812843; details: mice; cited from earlier work
# [7] = system: NR2F1; design: method as in PMID 34812843; details: cited from earlier work
# [8] = system: NR2F1-regulated genes SOX9, RARβ, and p27; design: method as in PMID 34812843; details: chicken embryo chorioallantoic membrane tumors; cited from earlier work
# [9] = biological target: T1, PNR (NR2E3) (Homo sapiens, UniProt Q9Y5X4); assay: Gal4-hybrid reporter gene assay PNR; assay type: cell-based; details: selected test concentration (Figure 3)
# T1 construct: encoding the hinge region and the LBD of the canonical isoform of the respective human nuclear receptors; expressed in transfected cells; host or cells: HEK293T
# T1 sequence (Q9Y5X4 169-410 limits assumed): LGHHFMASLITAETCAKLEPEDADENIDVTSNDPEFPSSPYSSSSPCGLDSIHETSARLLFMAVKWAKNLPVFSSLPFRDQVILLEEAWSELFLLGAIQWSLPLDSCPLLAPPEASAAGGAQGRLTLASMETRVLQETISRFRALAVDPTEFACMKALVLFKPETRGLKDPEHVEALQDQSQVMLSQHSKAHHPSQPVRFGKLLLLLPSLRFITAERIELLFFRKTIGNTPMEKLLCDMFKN
# Procedure: Gal4-hybrid reporter gene assays were performed as described previously using the plasmids pFA-CMV-hTHRα-LBD,[170] pFA-CMV-hRARα-LBD,[171] pFA-CMV-hPPARα-LBD,[172] pFA-CMV-hPPARγ-LBD,[172] pFA-CMV-hPPARδ-LBD,[172] pFA-CMV-revERBα-LBD,[158] pFA-CMV-hRORα-LBD,[173] pFA-CMV-hLXRα-LBD,[118] pFA-CMV-hFXR-LBD,[174] pFA-CMV-hVDR-LBD,[171] pFA-CMV-hCAR-LBD,[171] pFA-CMV-hHNF4α-LBD,[110] pFA-CMV-hRXRα-LBD,[175] pFA-CMV-hTR2-LBD,[102] pFA-CMV-hTR4-LBD,[102] pFA-CMV-hTLX-LBD,[102] pFA-CMV-hNR2E3-LBD,[102] pFA-CMV-hNur77-LBD,[176] pFA-CMV-hSF1-LBD[158] encoding the hinge region and the LBD of the canonical isoform of the respective human nuclear receptors. pFR-Luc (Stratagene, La Jolla, CA, USA) was used as a reporter plasmid, and pRL-SV40 (Promega, Madison, WI, USA) was used for normalization of transfection efficiency and cell growth. HEK293T cells (German Collection of Microorganisms and Cell Culture GmbH, DSMZ) were cultured in Dulbecco’s modified Eagle’s medium (DMEM), high glucose supplemented with 10% fetal calf serum (FCS), sodium pyruvate (1 mM), penicillin (100 U/mL), and streptomycin (100 μg/mL) at 37 °C and 5% CO2 and seeded in 96-well plates (3 × 10^4 cells/well). The medium was changed to Opti-MEM without supplements, and the cells were transiently transfected with one pFA-CMV-hNR-LBD clone, pFR-Luc, and pRL-SV40 using Lipofectamine LTX reagent (Invitrogen, Thermo Fisher Scientific) according to the manufacturer’s instructions. Five hours after transfection, cells were incubated with the test compounds in Opti-MEM supplemented with penicillin (100 U/mL), streptomycin (100 μg/mL), and 0.1% DMSO. Each sample was set up in duplicates and tested in at least three independent experiments. After 16 h incubation, luciferase activity was measured using the Dual-Glo Luciferase Assay System (Promega) according to the manufacturer’s protocol on a Tecan Spark luminometer (Tecan Deutschland GmbH, Crailsheim, Germany). Firefly luminescence was divided by Renilla luminescence and multiplied by 1000 resulting in relative light units (RLUs) to normalize for transfection efficiency and cell growth. Fold activation was obtained by dividing the mean RLU of the test compound by the mean^a RLU of the untreated control, and relative activation was calculated by dividing the fold activation of a test sample by the fold activation of the respective reference agonist. Antagonistic effects were evaluated by coincubation of the test compound with the respective reference ligand.
# [10] = system: TLX LBD; details: FP assay, cited from earlier work
# [11] = system: full-length TLX; details: reporter gene assay; read-out: IC50 (second value of cell; full-length TLX); cited from earlier work
# [12] = biological target: T2, TLX (Homo sapiens, UniProt Q9Y466); assay: Gal4-hybrid reporter gene assay TLX; assay type: cell-based; details: selected test concentration (Figure 3)
# T2 construct: encoding the hinge region and the LBD of the canonical isoform of the respective human nuclear receptors; expressed in transfected cells; host or cells: HEK293T
# T2 sequence (Q9Y466 155-383 limits assumed): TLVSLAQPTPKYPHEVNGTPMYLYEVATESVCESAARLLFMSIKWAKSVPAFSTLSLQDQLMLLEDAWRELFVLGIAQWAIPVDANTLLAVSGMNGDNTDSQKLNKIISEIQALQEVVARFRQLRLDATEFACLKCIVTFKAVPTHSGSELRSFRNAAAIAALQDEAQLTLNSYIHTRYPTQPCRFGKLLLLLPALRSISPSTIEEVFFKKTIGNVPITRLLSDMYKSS
# [13] = system: TLX; details: reporter gene assay; read-out: IC50 (first value of cell; TLX/Gal4); cited from earlier work
# [14] = system: RARs and RXRs; design: method as in PMID 32763139; details: cited from earlier work
# [15] = biological target: RARα (Homo sapiens, UniProt P10276); details: selected test concentration (Figure 3)
# RARα, sequence (P10276 183-417 limits assumed): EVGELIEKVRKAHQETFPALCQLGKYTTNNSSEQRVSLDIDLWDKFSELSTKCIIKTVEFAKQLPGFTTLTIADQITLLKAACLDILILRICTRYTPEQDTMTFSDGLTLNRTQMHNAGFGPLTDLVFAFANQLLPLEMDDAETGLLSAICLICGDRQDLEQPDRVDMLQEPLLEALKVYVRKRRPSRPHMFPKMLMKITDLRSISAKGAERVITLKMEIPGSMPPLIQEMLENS
# Procedure: HEK293T cells (German Collection of Microorganisms and Cell Culture GmbH, DSMZ) were cultured in Dulbecco’s modified Eagle’s medium (DMEM), high glucose supplemented with 10% fetal calf serum (FCS), sodium pyruvate (1 mM), penicillin (100 U/mL), and streptomycin (100 μg/mL) at 37 °C and 5% CO2 and seeded in 96-well plates (3 × 10^4 cells/well). The medium was changed to Opti-MEM without supplements, and the cells were transiently transfected with one pFA-CMV-hNR-LBD clone, pFR-Luc, and pRL-SV40 using Lipofectamine LTX reagent (Invitrogen, Thermo Fisher Scientific) according to the manufacturer’s instructions. […] After 16 h incubation, luciferase activity was measured using the Dual-Glo Luciferase Assay System (Promega) according to the manufacturer’s protocol on a Tecan Spark luminometer (Tecan Deutschland GmbH, Crailsheim, Germany). Firefly luminescence was divided by Renilla luminescence and multiplied by 1000 resulting in relative light units (RLUs) to normalize for transfection efficiency and cell growth. Fold activation was obtained by dividing the mean RLU of the test compound by the mean^a RLU of the untreated control, and relative activation was calculated by dividing the fold activation of a test sample by the fold activation of the respective reference agonist. Antagonistic effects were evaluated by coincubation of the test compound with the respective reference ligand.
# [16] = system: HEK293T cells; details: cited from earlier work
# [17] = biological target: T3, RXRα (Homo sapiens, UniProt P19793); assay: Gal4-hybrid reporter gene assay RXRα; details: 1 µM
# T3 sequence (P19793 227-458 limits assumed): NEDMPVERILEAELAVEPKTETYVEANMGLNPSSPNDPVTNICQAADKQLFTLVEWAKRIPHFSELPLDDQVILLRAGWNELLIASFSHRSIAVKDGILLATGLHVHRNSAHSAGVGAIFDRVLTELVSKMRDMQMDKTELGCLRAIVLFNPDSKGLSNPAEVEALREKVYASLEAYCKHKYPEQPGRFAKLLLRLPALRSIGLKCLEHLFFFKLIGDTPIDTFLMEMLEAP
# [18] = biological target: T4, TR4 (Homo sapiens, UniProt P49116); assay: Gal4-hybrid reporter gene assay TR4; assay type: cell-based; details: 1 µM
# T4 construct: encoding the hinge region and the LBD of the canonical isoform of the respective human nuclear receptors; expressed in transfected cells; host or cells: HEK293T
# T4 sequence (P49116 341-583 limits assumed): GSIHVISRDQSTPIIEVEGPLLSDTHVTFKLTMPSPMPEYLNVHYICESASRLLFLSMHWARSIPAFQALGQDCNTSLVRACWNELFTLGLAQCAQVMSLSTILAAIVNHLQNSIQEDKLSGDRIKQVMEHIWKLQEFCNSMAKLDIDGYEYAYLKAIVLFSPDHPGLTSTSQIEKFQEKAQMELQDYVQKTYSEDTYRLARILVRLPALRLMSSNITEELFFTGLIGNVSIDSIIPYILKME
# Procedure: (§1) Gal4-hybrid reporter gene assays were performed as described previously using the plasmids pFA-CMV-hTHRα-LBD,[170] pFA-CMV-hRARα-LBD,[171] pFA-CMV-hPPARα-LBD,[172] pFA-CMV-hPPARγ-LBD,[172] pFA-CMV-hPPARδ-LBD,[172] pFA-CMV-revERBα-LBD,[158] pFA-CMV-hRORα-LBD,[173] pFA-CMV-hLXRα-LBD,[118] pFA-CMV-hFXR-LBD,[174] pFA-CMV-hVDR-LBD,[171] pFA-CMV-hCAR-LBD,[171] pFA-CMV-hHNF4α-LBD,[110] pFA-CMV-hRXRα-LBD,[175] pFA-CMV-hTR2-LBD,[102] pFA-CMV-hTR4-LBD,[102] pFA-CMV-hTLX-LBD,[102] pFA-CMV-hNR2E3-LBD,[102] pFA-CMV-hNur77-LBD,[176] pFA-CMV-hSF1-LBD[158] encoding the hinge region and the LBD of the canonical isoform of the respective human nuclear receptors. pFR-Luc (Stratagene, La Jolla, CA, USA) was used as a reporter plasmid, and pRL-SV40 (Promega, Madison, WI, USA) was used for normalization of transfection efficiency and cell growth. […] After 16 h incubation, luciferase activity was measured using the Dual-Glo Luciferase Assay System (Promega) according to the manufacturer’s protocol on a Tecan Spark luminometer (Tecan Deutschland GmbH, Crailsheim, Germany). Firefly luminescence was divided by Renilla luminescence and multiplied by 1000 resulting in relative light units (RLUs) to normalize for transfection efficiency and cell growth. […] Antagonistic effects were evaluated by coincubation of the test compound with the respective reference ligand.
# [19] = system: RXRα; details: reporter gene assay; read-out: RXRα cellular activity/potency; cited from earlier work
# [20] = system: RXRβ; details: reporter gene assay; read-out: RXRβ cellular activity/potency; cited from earlier work
# [21] = system: RXRγ; details: reporter gene assay; read-out: RXRγ cellular activity/potency; cited from earlier work
# [22] = biological target: T5, TR2 (Homo sapiens, UniProt P13056); assay: Gal4-hybrid reporter gene assay TR2; assay type: cell-based; details: 1 µM
# T5 construct: encoding the hinge region and the LBD of the canonical isoform of the respective human nuclear receptors; expressed in transfected cells; host or cells: HEK293T
# T5 sequence (P13056 348-590 limits assumed): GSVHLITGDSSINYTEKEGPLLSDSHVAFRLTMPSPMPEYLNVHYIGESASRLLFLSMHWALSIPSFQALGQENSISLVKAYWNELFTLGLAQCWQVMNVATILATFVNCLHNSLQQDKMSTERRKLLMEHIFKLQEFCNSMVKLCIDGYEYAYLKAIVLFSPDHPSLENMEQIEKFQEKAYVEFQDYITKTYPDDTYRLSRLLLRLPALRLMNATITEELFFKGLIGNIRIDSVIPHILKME
# Procedure: as §1
structure (smiles),measurement,setting,value
COc1ccc(CCNc2ncnc3sc(C)cc23)cc1OC [compound 27],interaction with related NRs in pulldown assay,[1],no relevant interaction
same,prostate cancer tumor growth and angiogenesis,[2],inhibited prostate cancer tumor growth and angiogenesis
same,expression of COUP-TF2 target genes FOXM1 and CDK1,[3],altered expression
same,IC50,[4],3200 nM
CCSc1nnc2n(CCc3ccccc3)c(=O)c3c(n12)-c1ccccc1CC31CCCCC1 [compound 26],increase in NR2F1 mRNA,[5],2.3 fold
same,increase in NR2F1 protein levels,[5],10 fold
same,tumor growth and metastasis of HNSCC,[6],inhibited tumor growth and metastasis
same,fold activation @ 0.1 μM,"[7]; reporter gene assay, 0.1 μM",2.4 f.A.
same,fold activation @ 1 μM,"[7]; reporter gene assay, 1 μM",1.9 f.A.
same,EC50,"[7]; reporter gene assay, two cell lines",500 to 1000 nM
same,enhancement of reporter activity,[7]; two cell lines,approximately two-fold
same,"expression of NR2F1-regulated genes SOX9, RARβ, and p27",[8],induced expression
same,PNR modulation,[9],confirmed albeit with rather low efficacy
CC1(C)CC=C(c2ccccc2)c2cc(/C=C/c3ccc(C(=O)O)cc3)ccc21 [compound 17],effect on atrophin binding to TLX LBD,[10],displacement of atrophin
same,Kd,[10]; no precise value reported,~1000 nM
same,IC50,[11],159 nM
same,TLX modulation,[12],not observed
same,IC50,[13],367 nM
same,activity on RARs and RXRs,[14],agonism on RARs and RXRs
same,RAR activation,[15],activated RAR
same,toxicity in HEK293T cells used for the reporter gene assays,[16],pronounced toxicity
CC1(C)CCC(C)(C)c2cc(C3(c4ccc(C(=O)O)cc4)OCCO3)ccc21 [compound 11],RXR activation,[17],strong RXR activation
same,TR4 off-target activity,[18],off-target activities
same,EC50,[19],29 nM
same,EC50,[20],98 nM
same,EC50,[21],232 nM
same,TR2 off-target activity,[22],off-target activities
same,PNR modulation,[9],off-target activities
